Measured values: patent EP0701444B1, “METHODS AND COMPOSITIONS FOR INDUCING SLEEP” (Purdue Pharma Ltd., priority 1993, dated 1994)

Experiments:
[1] = target: steroid site on the GABAA receptor-chloride channel complex; test: [35S]TBPS binding assay; parameters: species or system Male Sprague-Dawley rats; settings: inhibition of [35S]TBPS (2 nM) binding, rat cerebral cortex P2 membranes, 5 µM GABA, 90 minute incubation at 22°C
Procedure: TBPS binding assays were conducted according to the following procedures, which are described in Gee, K.W.; Lawrence, L.J.; and Yamamura, H. I., "Modulation of the Chloride Ionophore by Benzodiazepine Receptor Ligands Influence of Gamma-Aminobutyric Acid and Ligand Efficacy," Molecular Pharmacology, 30:218, 1986. Male Sprague-Dawley rats (200-250g) were anesthetized with carbon dioxide and decapitated. The rats' brains were removed and the cerebral cortices were dissected and homogenized in 10 volumes of 0.32 M sucrose. Tissue was centrifuged at 1000 x g for 10 minutes and the resultant supernatant was centrifuged at 9,000 g for 20 minutes. The resultant pellet was resuspended in 10 volumes of 200 mM NaCl/50 mM Na-K phosphate pH 7.4 buffer (binding buffer) and then centrifuged at 9,000 x g for 10 minutes. This washing procedure was repeated twice and the final P2 pellet was resuspended in the binding buffer. For the binding assay, [^35S] TBPS (2 nM) was co-incubated in binding buffer with P2 membranes and 5 µM GABA and either 1) no additions to measure total binding; 2) 2 µM unlabeled TPBS to measure nonspecific binding; 3) the neurosteroid ranging in concentration from 1 Nm to 10µM. Following a 90 minute incubation at 22°C, the suspension was filtered and the bound radioactivity was determined by liquid scintillation counting. […] A lower IC50 indicates higher affinity for the steroid site on the GABAA receptor-chloride channel complex. Table 1 gives the IC50 values of representative steroids used in the present invention.

[2] = tested on: rats; test: Rat sleep-wake bioassay (EEG, EMG, locomotor activity, body temperature); assay type: in vivo, Wistar rats
Procedure: Rat preparation, monitoring, and analysis of the data was conducted as described below. […] Body temperature and locomotor activity were monitored via a miniature transmitter (Minimitter) surgically placed in the abdomen. The cranial implant consisted of stainless steel screws (2 frontal [+3.9 AP form bregma, ±2.0 ML] and two occipital [-6.4 AP, ±5.5 ML]) for EEG recording. Two Teflon-coated steel wires were positioned under the nuchal trapezoid muscles for EMG recording. All leads were soldered to a miniature connector prior to surgery, and chemically sterilized in Glutarex (3M Co.). The implant assembly was affixed to the skull with dental acrylic. A minimum of three weeks was allowed for recovery.
Each rat was permanently housed in its own individual recording cage located within separate, ventilated compartments of custom-designed stainless steel cabinets. Each Nalgene microisolator cage, which is an individual recording cage, was enhanced with a filter-top riser and swivel-commutator. Food and water were available ad libitum. […] Animals were undisturbed for three days both before and after treatments. In practice, animals were undisturbed during the weekend. Treatments were administered on Monday evening or Tuesday morning, and the animals were again left undisturbed until Friday, when cages were cleaned and the data copied off the computers.
The computers monitored the EEG, EMG, body temperature and non-specific locomotor activity (LMA) via telemetry, and drinking activity from 48 rats simultaneously. The computer classified the arousal state every 10 seconds using pattern-matching algorithms which included behavior-dependent contextual rules. Drinking and LMA were recorded every 10 seconds, while body temperature was recorded every minute.
Therefore, time of treatment is important. By administering the drug at CT-18, which is the peak of the rat's activity dominated period, the natural tendency for the rats to sleep at lights on ([…] clock time or Circadian Time, CT-0) cannot mask the hypnotic activity of the drug. By administering the drug at CT-5 when the propensity for REM sleep is greatest, the drug's effect on REM sleep can be measured more accurately. The activity dominated period begins when the lights are turned off at CT-12 or 15:00 clock time on the Figures.
The drugs and controls were injected intraperitoneally or administered orally in a volume of 1 ml/kg or […], respectively, under dim red illumination for the CT-18 studies or under regular light for the CT-5 studies.
A matched control group, N=20, was selected from a pool of 60 available control candidates. These matched control groups were constructed as follows.

[3] = Solubility in water; assay type: physicochemical; settings: read-out: soluble in water

SMILES	IC50 [1] [nM]	REM sleep [2]	body temperature [2]	duration of uninterrupted NREM sleep (sleep bout length) [2]	reduction in LMA over time ([2]; 18 mg/kg at CT-18)	rebound reduction of NREM sleep ([2]; administered at CT-18)	solubility [3] [mg/mL]
C#C[C@@]1(O)CC[C@@]2(C)[C@H](CC[C@@H]3[C@@H]2CC[C@]2(C)[C@@H](C(C)=O)CC[C@@H]32)C1 [3β-ethynyl-3α-hydroxy-5β-pregnan-20-one]	39	lack an inhibitory effect on REM sleep	minimal effect on body temperature	strong increase	moderately smaller reduction	no rebound reduction of NREM sleep	–
C#C[C@@]1(O)CC[C@@]2(C)[C@H](CC[C@@H]3[C@@H]2CC[C@]2(C)[C@@H](C(=O)COC(=O)CCC(=O)O)CC[C@@H]32)C1 [Sodium 3α,21-dihydroxy-3β-ethynyl-5β-pregnan-20-one 21-hemisuccinate]	–	–	–	–	–	–	> 20
